Literature values as cited in US20250319024A1, “TARGETED NANOPARTICLES AND THEIR USES RELATED TO INFECTIOUS DISEASE” (priority 2021, published 2025).
Read-outs that look alike come from different tables or passages of the source.

Tested on: RIF sensitive strains / resistant strains
Settings: cited from earlier work

CO[C@H]1/C=C/O[C@@]2(C)Oc3c(C)c(O)c4c(O)c(c(/C=N/N5CCN(C)CC5)c(O)c4c3C2=O)NC(=O)/C(C)=C\C=C\[C@H](C)[C@H](O)[C@@H](C)[C@@H](O)[C@@H](C)[C@H](OC(C)=O)[C@@H]1C [free RIF, rifampin]
ED95 (RIF sensitive strains): below 0.5 μg/mL | ED95 (resistant strains): above 2 μg/mL
